{
  "source": "patent US20250361217A1",
  "about": "“FATTY ACID COMPOUNDS” (University of Pittsburgh - Of the Commonwealth System of …, priority 2022, published 2025)",
  "key": {"[1]": {"design": "species or system mice", "details": "mouse, in vivo", "experimental": "Male C57BL/6J (12 weeks old) mice were used to measure the absorption and metabolism of FuFA. In this procedure, I1D3 (50 mg/kg), I 1U3 (50 mg/kg), I1U3-2M (50 mg/kg) and D31-palmitic acid (10 mg/kg) were administered simultaneously (cassette dosing) to single animal. Consequently, the relative pharmacokinetics of multiple compounds can be assessed rapidly with a small number of experimental animals. The compounds were injected either intraperitoneally (n=5) or by gavage (n=5). At 1, 2 and 4h after injection, a small incision on the tail vein was performed and microhematocrit capillary tubes (FisherBrand, #22-362566) were used to collect serial blood samples ([…] per collection). At 6h, mice were anesthetized, and blood was collected from the vena cava in a terminal blood draw. Blood samples were processed as described above to collect plasma. The pharmacokinetics (PK) of free FuFAs and D31-palmitic acid and their esters found in complex lipids were evaluated using 10 μl of plasma. Briefly, 20 μl of water were added to the […] of plasma and divided into 2 glass tubes. The sample in one tube was measured as is using GC-MS upon derivatization and the other sample was hydrolyzed before derivatization and quantification. […] For the total FA quantification, basic hydrolysis was performed using 500 μl of 1M KOH in MeOH and incubated for 1 h at 60° C. […]"}, "LncRNA GM15441": {"tested_on": "LncRNA GM15441", "experiment": "Fluorescence RNA in-situ hybridization for GM15441", "type": "in vivo, mice", "details": "livers of HFD-treated groups", "experimental": "Fluorescence RNA in-situ hybridization was performed on tissue sections using LNA ISH Optimization Kits (Qiagen, #339459) according to manufacturer's instructions. Briefly, the sectioning slides were deparaffinized and digested by proteinase K approach for 15 min at 37° C. U6, scrambled RNA, and GM15441 (LCD0173184) probes were hybridized at final concentration of 1 nM, 40 nM and 40 nM, respectively, followed by stringent washes of serial diluted SSC (Sigma, #S6639-1 L). After 30 min blocking, the slides were incubated with anti-DIG-POD (Roche, #11207733910) at 1:400 dilution for 60 min at RT according to manufacturer's instructions. TSA-plus Cyanine 3 (Akoya Bioscience, #NEL744001KT) substrate was added to the sections and incubated twice (5 min per incubation) to amplify the fluorescence signal. NucBlue Live ReadyProbes Reagent was applied to the slides at last to facilitate cell nuclei staining. Images were acquired on a fluorescent microscope (Leica, DMi8) using the Ocular Advanced Scientific Camera Control software (Digital Optics Limited)."}, "liver mitochondria": {"tested_on": "liver mitochondria", "experiment": "Citrate synthase activity and Oroboros analysis of liver mitochondria flux", "type": "in vivo, mice", "details": "for increase in citrate synthase activity (CSA) vs veh: 50 mg/kg, 11 weeks", "text": "A second cohort of mice was set up to confirm the effect of 11U3-2M on mitochondria and fatty acid (FA) β-oxidation using Oroboros analysis in the HFD but also in LFD models. Male C57BL/6J diet-induced obesity (C57BL/6J DIO, #380050) and male C57BL/6J diet-induced obesity control mice (C57BL/6J DIO Control, #380056) were purchased from Jackson Laboratory (Bar Harbor, ME, USA) at 15 weeks of age. Mice were continuously feeding either HFD or LFD during transport and upon reception. Mice were fed for 4 more weeks before starting the treatment. While continuing the HFD (n=8 per group) or LFD (n=8 per group), mice were treated with the same formulation as the first cohort using only 11U3-2M (50 mg/kg) or veh for 11 weeks. Mice were fasted for 5 h and received a single intraperitoneal injection of 50 μl of D31-palmitic acid (Cambridge Isotope, 3 μM, #dlm-215-1) in PEG400/Saline (2:1) and 1.5% of octanoic acid solution 2h before sacrifice in order to study FA metabolism. Blood and tissues were harvested and stored as described above."}, "[2]": {"experiment": "Energy expenditure and respiratory exchange ratio (FIG. 6D)", "type": "in vivo", "details": "mice after treatment"}},
  "data": [
    {"smiles": "CCCc1ccc(CCCCCCCCCC(C)(C)C(=O)O)o1", "note": "[11U3-2M, 2,2-Dimethyl-11-(5-propylfuran-2-yl)undecanoic acid]", "values": [
      {"measurement": "absorption pathway", "setting": "[1]", "value": "absorbed through the hepatic portal vein"},
      {"measurement": "oral stability (half-lives) compared with natural FuFAs", "setting": "[1]; po, 50 mg/kg", "value": "longer half-lives"},
      {"measurement": "GM15441 in-situ hybridization signal", "setting": "LncRNA GM15441", "value": "only detected in the nucleus of cells from 11U3-2M treated livers"},
      {"measurement": "increase of flux after addition of glutamate, ratio to CSA, vs veh", "setting": "liver mitochondria; HFD mice", "value": 34, "unit": "%"},
      {"measurement": "increase of flux normalized to CSA vs veh", "setting": "liver mitochondria; HFD mice", "value": 38.3, "unit": "%"},
      {"measurement": "increase in citrate synthase activity (CSA) vs veh", "setting": "liver mitochondria; HFD mice", "value": 29, "unit": "%"},
      {"measurement": "flux after addition of succinate (maximum respiration), normalized by CSA", "setting": "liver mitochondria; LFD and HFD mice", "value": "didn't show any significant difference"},
      {"measurement": "increase of flux after addition of glutamate, ratio to CSA, vs veh", "setting": "liver mitochondria; LFD mice", "value": 23, "unit": "%"},
      {"measurement": "increase of flux normalized to CSA vs veh", "setting": "liver mitochondria; LFD mice", "value": 32.5, "unit": "%"},
      {"measurement": "increase in citrate synthase activity (CSA) vs veh", "setting": "liver mitochondria; LFD mice", "value": 27, "unit": "%"},
      {"measurement": "flux with pyruvate as the substrate", "setting": "liver mitochondria; normalized to CSA", "value": "No significant change"},
      {"measurement": "mitochondria flux (Oroboros), not normalized", "setting": "liver mitochondria; substrates palmitoylcarnitine and pyruvate", "value": "significantly higher flux"},
      {"measurement": "energy expenditure", "setting": "[2]", "value": "no change"},
      {"measurement": "respiratory exchange ratio", "setting": "[2]", "value": "no change"}
    ]}
  ]
}
